Laboratory results published in patent US20170042991A1, “COMPOSITIONS COMPRISING GLUTEN PEPTIDES AND USES THEREOF” (ImmusanT, Inc., priority 2014, published 2017).
Non-standard residues stand in square brackets, D forms with d. pGlu = O=C1CC[C@@H](C(=O)O)N1

How the values were obtained:
Assay type in all cases: cell-based, human
gluten-reactive T cells = experiment: Cytokine release assays taken together (IFNγ ELISpot, whole blood IFNγ and IP-10 release); details: for relative activity among individual peptides tested: blood collected after oral gluten challenge, HLA-DQ2.5+ subjects
Protocol: Gluten peptide solutions for addition to whole blood were arranged according to standardized templates in sterile 96-well U-bottom plates (30 μL/well). Plates were sealed with adhesive ELISA plate cover slips before the plastic lid was replaced and being frozen at −80° C. Whole blood assay (WBA) “medium” (1% DMSO in 90% PBS and 9% normal saline), mitogen (PHA-L, Sigma-Aldrich #L2769; St Louis Mo.) 100 μg/ml in WBA medium, and CEF diluted to 10 μg/ml in PBS with a final concentration of 1% DMSO were frozen separately in sterile cryovials. 96-well plates and cryovials with frozen incubation solutions were shipped on dry ice to the clinical site where blood was collected and incubations performed. Solutions were thawed at room temperature for 10 min just before being added to whole blood. 96-well plates were thawed while being centrifuged at 300 g to avoid surface condensation. A multi-channel pipette was used to efficiently transfer 25 μL of peptide solutions from the original 96-well plate to corresponding wells in a fresh sterile 96-well U-bottom plate. Once incubation solutions had been added, 225 μL of whole blood was added to each well and the plate transferred to incubate for 24 h at 37° C. 5% CO2. […] Individual peptides were incubated at a final assay concentration of 5 μM. Final concentrations of individual peptides assessed in P3 was 0.05-50 μg/mL, and in P14 and P13 pools 0.025-25 μM. The P71 pool was tested at between 0.005-10 μg/mL, the highest tested concentration being the maximal possible not exceeding 0.1% DMSO. Peptide pools, mitogen, and medium only were assessed in triplicate wells, and on Day-6 individual peptides were assessed in duplicate wells. Incubations were terminated after 24 h, and 96-well plates centrifuged at 300 g for 10 min. A total of approximately 90 to 120 μL of plasma was removed from each well taking care to avoid red cell contamination, and transferred into corresponding wells of two further 96-well plates (one with 30 μL/well and the residual in the second plate). Plasmas were frozen at −80° C. and later shipped on dry ice to the central lab where IP-10 and IFNγ multiplex bead assays were performed according to manufacturer's instructions using 25 μL plasma per well (Milliplex® MAP Human Cytokine/Chemokine Magnetic Bead Panel #HCYTOMAG-60k-02; EMD Millipore Corp., Billerica, Mass. 01821) and analysed with the Luminex® MAGPIX® System xPONENT® software (Luminex Corporation, Austin Tex. 78727). Plasma cytokine levels for each assay condition were expressed as the mean analyte concentration of each of the three replicate incubations. Laboratory staff were unaware of the arrangement of peptide solutions incubated with during assay setup and plate counting. […]

whole blood [1] = experiment: 96-well plate whole blood multiplex cytokine release, IP-10 (MAGPIX bead assay, Example 2); details: for Percent of maximal response, IP-10: after oral gluten challenge; for IP-10 WB MAGPIX % max Mean: individual peptides 5 μM, Day-6, n = 10, Peptide 2 = CSBio batch
whole blood [2] = experiment: 96-well plate whole blood multiplex cytokine release, IFNγ (MAGPIX bead assay, Example 2); details: for Percent of maximal response, IFNg: after oral gluten challenge; for IFNγ WB MAGPIX % max Mean: individual peptides 5 μM, Day-6, n = 8, Peptide 2 = CSBio batch

Row | Substance | relative activity among individual peptides tested (gluten-reactive T cells) | Percent of maximal response, IP-10 (whole blood [1]; Subject 1, Max. 2331 pg/mL) | Percent of maximal response, IP-10 (whole blood [1]; Subject 2, Max. 3646 pg/mL) | Percent of maximal response, IP-10 (whole blood [1]; Subject 3, Max. 9492 pg/mL) | Percent of maximal response, IP-10 (whole blood [1]; Subject 4, Max. 9463 pg/mL) | Percent of maximal response, IP-10 (whole blood [1]; Subject 5, Max. 9336 pg/mL) | Percent of maximal response, IP-10 (whole blood [1]; Subject 6, Max. 5863 pg/mL) | Percent of maximal response, IP-10 (whole blood [1]; Subject 7, Max. 2330 pg/mL) | Percent of maximal response, IP-10 (whole blood [1]; Subject 8, Max. 4019 pg/mL) | Percent of maximal response, IP-10 (whole blood [1]; Subject 9, Max. 8349 pg/mL) | Percent of maximal response, IP-10 (whole blood [1]; Subject 10, Max. 8922 pg/mL) | IP-10 WB MAGPIX % max Mean (whole blood [1]) [% max] | Percent of maximal response, IFNg (whole blood [2]; Subject 2, Max. 116 pg/mL) | Percent of maximal response, IFNg (whole blood [2]; Subject 3, Max. 799 pg/mL) | Percent of maximal response, IFNg (whole blood [2]; Subject 4, Max. 136 pg/mL) | Percent of maximal response, IFNg (whole blood [2]; Subject 6, Max. 72 pg/mL) | Percent of maximal response, IFNg (whole blood [2]; Subject 7, Max. 17 pg/mL) | Percent of maximal response, IFNg (whole blood [2]; Subject 8, Max. 47 pg/mL) | Percent of maximal response, IFNg (whole blood [2]; Subject 9, Max. 67 pg/mL) | Percent of maximal response, IFNg (whole blood [2]; Subject 10, Max. 229 pg/mL) | further results
1 | (pE)LQPFPQPELPYPQPQ-amide ([pGlu]LQPFPQPELPYPQPQ-NH2; SMILES CC(C)C[C@H](NC(=O)[C@@H]1CCC(=O)N1)C(=O)N[C@@H](CCC(N)=O)C(=O)N1CCC[C@H]1C(=O)N[C@@H](Cc1ccccc1)C(=O)N1CCC[C@H]1C(=O)N[C@@H](CCC(N)=O)C(=O)N1CCC[C@H]1C(=O)N[C@@H](CCC(=O)O)C(=O)N[C@@H](CC(C)C)C(=O)N1CCC[C@H]1C(=O)N[C@@H](Cc1ccc(O)cc1)C(=O)N1CCC[C@H]1C(=O)N[C@@H](CCC(N)=O)C(=O)N1CCC[C@H]1C(=O)N[C@@H](CCC(N)=O)C(N)=O) [Peptide 1] | most active of this group of related peptides | 100 % of max | 100 % of max | ≥ 100 % of max | 96 % of max | 14 % of max | 23 % of max | 39 % of max | 3 % of max | 75 % of max | 34 % of max | 58 | 100 % of max | 14 % of max | 26 % of max | 25 % of max | 43 % of max | 6 % of max | 43 % of max | 7 % of max | activity as a fraction of that of Peptide 14 (gluten-reactive T cells; three cytokine release assays): no more than two-thirds; IFNγ WB MAGPIX % max Mean (whole blood [2]): 33 % max
2 | (pE)PEQPIPEQPQPYPQQ-amide ([pGlu]PEQPIPEQPQPYPQQ-NH2; SMILES CC[C@H](C)[C@H](NC(=O)[C@@H]1CCCN1C(=O)[C@H](CCC(N)=O)NC(=O)[C@H](CCC(=O)O)NC(=O)[C@@H]1CCCN1C(=O)[C@@H]1CCC(=O)N1)C(=O)N1CCC[C@H]1C(=O)N[C@@H](CCC(=O)O)C(=O)N[C@@H](CCC(N)=O)C(=O)N1CCC[C@H]1C(=O)N[C@@H](CCC(N)=O)C(=O)N1CCC[C@H]1C(=O)N[C@@H](Cc1ccc(O)cc1)C(=O)N1CCC[C@H]1C(=O)N[C@@H](CCC(N)=O)C(=O)N[C@@H](CCC(N)=O)C(N)=O) [Peptide 3] | consistently the second most active peptide after Peptide 14 | 51 % of max | 14 % of max | ≥ 100 % of max | ≥ 100 % of max | 53 % of max | 43 % of max | 5 % of max | 100 % of max | 85 % of max | ≥ 100 % of max | 65 | 35 % of max | 92 % of max | 66 % of max | 63 % of max | 6 % of max | 89 % of max | 60 % of max | 81 % of max | whole blood IP-10 release compared with that stimulated by Peptide 14 (whole blood [1]; whole blood incubations): one-quarter less; IFNγ WB MAGPIX % max Mean (whole blood [2]): 62 % max; whole blood IFNγ release compared with that stimulated by Peptide 14 (whole blood [2]; whole blood incubations): one-third less
